Experiments:
[1] = Dispersibility test of water dispersible granules (WG); type: physicochemical; conditions: summary of Table 4
Protocol: 0.3077 g of calcium carbonate and 0.092 g of magnesium oxide were dissolved in a small amount of diluted hydrochloric acid, then heated and boiled on a sand bath to remove hydrochloric acid. Distilled water was added to the remaining solution to make 10 liters in total. Subsequently, 100 ml of the obtained solution was put into a 100 ml stoppered measuring cylinder, and kept at 20° C. in a temperature-controlled room. 100 mg samples of S4 to S6 were put into the measuring cylinder, and left to stand for 30 seconds. The measuring cylinder was then turned upside down repeatedly at a rate of once a second, whereupon the turning-down frequency (number of turns) needed for disintegrating the whole water-dispersible material was counted.

[2] = type: physicochemical
Protocol: Samples (S1, S2 and S3) were stored at 54° C. for 1 month, 3 months and 6 months. The procedures were followed according to CIPAC MT 46.3. The concentration of Pyroxasulfone was measured at the end of each storage time by HPLC. The aggregation was measured by observation. The original concentration of Pyroxasulfone in each formulation was 40%.

## Cn1nc(C(F)(F)F)c(CS(=O)(=O)C2=NOC(C)(C)C2)c1OC(F)F [3-[[[5-(difluoromethoxy)-1-methyl-3-(trifluoromethyl)-1H-pyrazol-4-yl]methyl]sulfonyl]-4,5-dihydro-5,5-dimethylisoxazole]
[1]
  dispersibility compared with amorphous Pyroxasulfone: significantly higher dispersibility
[2]
  storage stability compared with amorphous Pyroxasulfone: significantly higher storage stability
[2]; summary of Table 5
  tendency to aggregate during storage: significantly lower tendency to aggregate
